Results taken from ChEMBL document CHEMBL1201862, “PubChem BioAssay data set” (2004).
Calls of active or inactive are those of the source.

Columns and labels:
[1] = biological target: Lysosomal acid glucosylceramidase (Homo sapiens, UniProt P04062); assay: Dose response cell-based high throughput screening assay to identify enhancers of beta-glucosidase activity. [Related pubchem assays: 784 ]; assay type: functional
[2] = Luminescence Cell-Based Dose Response HTS to Identify Inhibitors of 5'UTR Stem-Loop Driven Prion Protein mRNA Translation in H4 Neuroglioblastoma Cells. [Related pubchem assays: 1827 (Project Summary), 1813 (Primary HTS)]; assay type: functional
[3] = alpha-synuclein stem-loop luciferase translation blockers – H4 neuroglioma cells, luminescence, confirmation (AID 1988); assay type: functional, cell-based
[4] = luciferase reporter signal suppression in cells – H4 neuroglioma cells, luminescence, dose response (AID 1990); assay type: functional, cell-based
[5] = CCR5-tropic HIV-1 fusion blockers – cell-based, CCR5-tropic Env, dose response (AID 2279); assay type: functional
[6] = viability inhibitors of stage V gametocytes – luminescence, dose response (AID 1117278); assay type: functional, cell-based;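 also: gametocytes exposed to compound for 24 hours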
[7] = biological target: Neuropeptide Y receptor type 1 (Homo sapiens, UniProt P25929); assay: Fluorescence-based counterscreen for agonists of NPY-Y2: cell-based high-throughput dose response assay for agonists of NPY-Y1.; assay type: functional
Chain of Neuropeptide Y receptor type 1 (P25929 whole entry): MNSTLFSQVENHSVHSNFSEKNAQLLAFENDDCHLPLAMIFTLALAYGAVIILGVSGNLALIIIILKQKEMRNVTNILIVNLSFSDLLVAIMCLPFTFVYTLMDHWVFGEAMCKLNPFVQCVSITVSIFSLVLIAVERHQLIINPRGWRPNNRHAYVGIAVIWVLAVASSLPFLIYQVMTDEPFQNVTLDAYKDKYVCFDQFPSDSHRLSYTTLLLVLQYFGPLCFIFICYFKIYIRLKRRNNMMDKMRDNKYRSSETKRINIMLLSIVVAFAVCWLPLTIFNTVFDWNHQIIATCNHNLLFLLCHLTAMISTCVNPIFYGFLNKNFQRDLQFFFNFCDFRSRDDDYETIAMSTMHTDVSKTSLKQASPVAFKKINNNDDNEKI

[8] = biological target: Neuropeptide Y receptor type 2 (Homo sapiens, UniProt P49146); assay: Fluorescence-based cell-based high-throughput dose response assay for agonists of NPY-Y2. [Related pubchem assays: 1703 (Screening assay (CNGC inhibitors).), 1359 (Screening assay (NPY-Y2 potentiators or agonists).), 1304 (Screening assay (NPY-Y1 potentiators or agonists).), 1710 (Screening assay (NPY-Y2 agonists).), 1791 (Summary AID.)]; assay type: functional
Chain of Neuropeptide Y receptor type 2 (P49146 whole entry): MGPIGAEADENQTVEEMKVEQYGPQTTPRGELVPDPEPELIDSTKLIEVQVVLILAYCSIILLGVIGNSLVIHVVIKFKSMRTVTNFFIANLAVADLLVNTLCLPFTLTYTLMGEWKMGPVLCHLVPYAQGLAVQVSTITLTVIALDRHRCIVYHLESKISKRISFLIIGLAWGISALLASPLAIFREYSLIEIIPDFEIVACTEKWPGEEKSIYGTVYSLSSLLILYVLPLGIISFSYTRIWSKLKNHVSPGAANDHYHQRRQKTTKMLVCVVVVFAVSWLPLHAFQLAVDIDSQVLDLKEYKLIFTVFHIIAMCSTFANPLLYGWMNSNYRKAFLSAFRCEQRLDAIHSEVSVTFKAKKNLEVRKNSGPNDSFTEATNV

[9] = viability loss in human Jurkat cells – cell-based, luminescence, cytotoxicity control for P. falciparum gametocyte viability project, dose response (AID 1117277); assay type: functional;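 also: potency reflects loss of cellular ATP meaning fewer viable cells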
[10] = test system: HEK293; assay: Fluorescence-based counterscreen for potentiators or agonists of NPY-Y2: cell-based high-throughput dose response assay to identify inhibitors of cyclic nucleotide gated ion channel (CNGC) activity. In this assay, the parental HEK293 cell line transfected with a cyclic-nucleotide gated ion channel (CNGC)-based cAMP sensor is used to measure inhibition of isoproterenol-induced CNGC activity by test compound.; assay type: functional; conditions: Homo sapiens;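 also: stimulus is 1 µM isoproterenol at EC100 plus PDE inhibitor Ro 20-1724 at 25 µM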
[11] = biological target: Oxytocin receptor (Homo sapiens, UniProt P30559); assay: Fluorescence-based cell-based high throughput dose response assay for agonists of the Oxytocin Receptor (OXTR). [Related pubchem assays: 2435 (Primary screen (OXTR agonists in singlicate)), 434991 (Counterscreen (V1R agonists in triplicate)), 2482 (Summary (OXTR agonists)), 434963 (Confirmation screen (OXTR agonists in triplicate))]; assay type: functional
Chain of Oxytocin receptor (P30559 whole entry): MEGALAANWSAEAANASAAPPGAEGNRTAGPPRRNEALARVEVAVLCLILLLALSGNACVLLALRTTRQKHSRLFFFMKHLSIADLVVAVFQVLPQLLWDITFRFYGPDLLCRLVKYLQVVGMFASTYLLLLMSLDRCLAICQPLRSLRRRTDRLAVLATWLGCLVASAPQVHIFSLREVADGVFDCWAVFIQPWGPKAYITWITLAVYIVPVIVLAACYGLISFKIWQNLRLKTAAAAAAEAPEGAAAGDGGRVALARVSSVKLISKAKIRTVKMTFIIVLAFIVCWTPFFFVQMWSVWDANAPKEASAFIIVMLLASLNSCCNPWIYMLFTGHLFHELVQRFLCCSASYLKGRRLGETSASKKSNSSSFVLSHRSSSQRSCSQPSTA

[12] = Luminescence Cell-Based Dose Retest to Confirm Inhibitors of Cancer Stem Cells. [Related pubchem assays (depositor defined):AID2717, AID2721]; assay type: functional; conditions: Homo sapiens
[13] = biological target: Vasopressin V1a receptor (Homo sapiens, UniProt P37288); assay: Counterscreen for Oxytocin Receptor (OXTR) agonists: Fluorescence-based cell-based high throughput dose response assay to identify agonists of the vasopressin 1 receptor (V1R). [Related pubchem assays: 2435 (Primary screen (OXTR agonists in singlicate)), 434991 (Counterscreen (V1R agonists in triplicate)), 2482 (Summary (OXTR agonists)) …; assay type: functional
Chain of Vasopressin V1a receptor (P37288 whole entry): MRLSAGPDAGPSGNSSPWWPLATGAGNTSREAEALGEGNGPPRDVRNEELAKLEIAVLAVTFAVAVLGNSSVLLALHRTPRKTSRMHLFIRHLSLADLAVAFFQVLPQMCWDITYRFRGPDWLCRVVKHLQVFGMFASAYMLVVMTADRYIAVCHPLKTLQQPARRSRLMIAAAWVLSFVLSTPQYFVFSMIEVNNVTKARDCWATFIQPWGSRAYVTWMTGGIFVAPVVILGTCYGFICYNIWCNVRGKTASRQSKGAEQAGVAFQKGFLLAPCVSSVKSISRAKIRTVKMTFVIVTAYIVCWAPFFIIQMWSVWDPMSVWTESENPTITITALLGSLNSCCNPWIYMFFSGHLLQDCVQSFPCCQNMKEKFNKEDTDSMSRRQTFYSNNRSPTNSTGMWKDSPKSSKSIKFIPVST

[14] = biological target: Cytochrome P450 2C9 (Homo sapiens, UniProt P11712); conditions: Potency
Chain of Cytochrome P450 2C9 (P11712 whole entry): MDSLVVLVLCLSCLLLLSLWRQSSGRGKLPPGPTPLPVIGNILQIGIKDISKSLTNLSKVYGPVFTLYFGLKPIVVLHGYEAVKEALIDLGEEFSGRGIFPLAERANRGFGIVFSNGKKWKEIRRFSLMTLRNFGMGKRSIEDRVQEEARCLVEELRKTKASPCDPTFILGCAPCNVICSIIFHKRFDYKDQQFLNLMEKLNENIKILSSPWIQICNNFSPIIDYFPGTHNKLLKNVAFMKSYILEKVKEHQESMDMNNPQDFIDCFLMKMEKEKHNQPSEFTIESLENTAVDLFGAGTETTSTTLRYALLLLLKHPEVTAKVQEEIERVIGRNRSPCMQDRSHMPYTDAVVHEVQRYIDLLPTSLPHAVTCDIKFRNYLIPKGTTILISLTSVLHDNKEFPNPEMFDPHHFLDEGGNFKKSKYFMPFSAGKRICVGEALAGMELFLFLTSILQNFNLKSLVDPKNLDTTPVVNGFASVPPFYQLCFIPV

[15] = cells; assay type: functional, cell-based
[16] = alpha-synuclein stem-loop translation blockers – luminescence, H4 neuroglioblastoma cells, dose confirmation, confirmation (AID 2454); assay type: functional, cell-based;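 also: H4 neuroglioblastoma cells carrying an alpha-synuclein 5'UTR luciferase reporter; potency for inhibition of the luciferase signal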
[17] = luciferase reporter signal reduction – luminescence, H4-C neuroglioblastoma cells, dose response (AID 2458); assay type: functional, cell-based;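 also: H4 neuroglioblastoma cells stably carrying a luciferase reporter gene fusion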

Chain of Lysosomal acid glucosylceramidase (P04062 whole entry): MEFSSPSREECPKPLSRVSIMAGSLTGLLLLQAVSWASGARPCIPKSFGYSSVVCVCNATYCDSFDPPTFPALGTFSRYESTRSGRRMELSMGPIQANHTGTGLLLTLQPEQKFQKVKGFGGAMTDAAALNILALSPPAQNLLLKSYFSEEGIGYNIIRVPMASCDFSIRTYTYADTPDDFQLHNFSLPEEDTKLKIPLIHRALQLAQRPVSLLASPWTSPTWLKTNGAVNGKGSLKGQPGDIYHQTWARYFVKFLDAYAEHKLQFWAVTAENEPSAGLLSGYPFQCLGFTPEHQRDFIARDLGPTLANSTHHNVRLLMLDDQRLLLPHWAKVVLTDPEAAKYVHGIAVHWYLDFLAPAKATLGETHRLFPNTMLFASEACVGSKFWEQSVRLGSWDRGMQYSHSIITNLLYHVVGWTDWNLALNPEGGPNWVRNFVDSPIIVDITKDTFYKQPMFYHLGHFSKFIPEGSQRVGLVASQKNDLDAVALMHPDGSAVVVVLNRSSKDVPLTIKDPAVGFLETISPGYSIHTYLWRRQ

With `CC(=O)N1CCc2cc(S(=O)(=O)CCC(=O)N3CCN(C(=O)c4ccco4)CC3)ccc21` as the compound, how does the EC50 [1] read?
The EC50 was > 50 µM (not active).

What does the source list for `O=C(OCC1OC(n2ncc(=O)[nH]c2=O)C(OC(=O)c2ccccc2)C1OC(=O)c1ccccc1)c1ccccc1` (stereo not given)?
EC50 [2]: 17.7 µM (active); EC50 [3]: > 120 µM (not active); EC50 [4]: 13.5 µM (active); IC50 [5]: 12.2 µM (active)

For `O=C(O)c1ccc(OCc2cn3ccccc3n2)cc1`, which IC50 [6] is on record?
Its IC50 is > 109 µM (inactive).

And the EC50 [7]?
The EC50 was > 35.4 µM (not active).

What about the EC50 [8] of the same compound?
Its EC50 is > 35.4 µM (not active).

And the IC50 [9]?
The IC50 was > 83.2 µM (inactive).

What about the EC50 [10] of the same compound?
The EC50 was > 35.4 µM (not active).

Which results are given for `CC1(C)CC[C@@]2(C(=O)O)C(C1)C1=CCC3[C@@]4(C)CC[C@H](O)C(C)(C)C4CC[C@@]3(C)[C@]1(C)C[C@H]2O` (stereo not given in full)?
EC50 [11]: 2.67 µM (active); AC50 [12]: 7.33 µM (active); EC50 [13]: 2.33 µM (active)

For `CC(C)[C@@H](CC(=O)N[C@@H]1CCCC[C@H]1C(=O)N[C@H](CC(=O)N[C@@H](CCC(=O)O)CC(=O)O)Cc1ccccc1)NC(=O)C[C@H](CO)NC(=O)[C@@H]1CNCC[C@H]1N`, which AC50 [14] is on record?
Its AC50 is 31.6 µM (inconclusive).

Which results are given for `CC(C)(C)c1ccc(Oc2ccc(N)cn2)cc1` [LIMANTRAFIN]?
EC50 [15]: 2.75 µM (active); EC50 [16]: 1.05 µM (active); EC50 [2]: 5.68 µM (active); EC50 [17]: 0.803 µM (active); EC50 [3]: < 0.1 µM (active); EC50 [4]: < 0.1 µM (active)
